Test results from the supplement of paper PMC10307832.

Tests used:
Test in all cases: relative viability (nuclei count vs DMSO), 5 days (fraction); higher = more cells survive
NCI-H1666 = tested on: NCI-H1666
Summary of the method: (§1)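 Dosing by pin tool came one day after lung cancer cell lines were seeded in 1536-well plates, using either one drug or a fixed anchor-drug dose plus five library-drug doses (not always all listed) in √10 steps. After 5 days, nuclei were counted on 4× images. Relative viability is treated-well nuclei count divided by vehicle-well nuclei count, and values are medians of duplicate plates.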

NCI-H1993 = tested on: NCI-H1993
Summary of the method: as §1

NCI-H2085 = tested on: NCI-H2085
Summary of the method: as §1

NCI-H2170 = tested on: NCI-H2170
Summary of the method: as §1

NCI-H2228 = tested on: NCI-H2228
Summary of the method: as §1

NCI-H2347 = tested on: NCI-H2347
Summary of the method: as §1

NCI-H23 = tested on: NCI-H23
Summary of the method: as §1

NCI-H322M = tested on: NCI-H322M
Summary of the method: as §1

NCI-H520 = tested on: NCI-H520
Summary of the method: as §1

NCI-H647 = tested on: NCI-H647
Summary of the method: as §1

NCI-H661 = tested on: NCI-H661
Summary of the method: as §1

NCI-H838 = tested on: NCI-H838
Summary of the method: as §1

**Q.** `O=c1[nH]c2ccccc2n1C1CCN(CCCC(c2ccc(F)cc2)c2ccc(F)cc2)CC1` [Pimozide] + CS(=O)(=O)N1CCN(Cc2cc3nc(-c4cccc5[nH]ncc45)nc(N4CCOCC4)c3s2)CC1 [Pictilisib] (partner 1 µM) was tested. Which relative viability (NCI-H1666; first compound 0.8 µM) did it give?
**A.** The relative viability was 0.439.

**Q.** And the relative viability (NCI-H1666; first compound 2.53 µM)?
**A.** Its relative viability is 0.385.

**Q.** What about the relative viability (NCI-H1666; first compound 8 µM) of the same compound?
**A.** The relative viability was 0.465.

**Q.** And the relative viability (NCI-H1993; first compound 0.08 µM)?
**A.** The relative viability was 0.751.

**Q.** And the relative viability (NCI-H1993; first compound 0.253 µM)?
**A.** Its relative viability is 0.902.

**Q.** What about the relative viability (NCI-H1993; first compound 0.8 µM) of the same compound?
**A.** Its relative viability is 0.778.

**Q.** What about the relative viability (NCI-H1993; first compound 2.53 µM) of the same compound?
**A.** Its relative viability is 0.91.

**Q.** What about the relative viability (NCI-H1993; first compound 8 µM) of the same compound?
**A.** Its relative viability is 0.846.

**Q.** What about the relative viability (NCI-H2085; first compound 0.08 µM) of the same compound?
**A.** The relative viability was 0.446.

**Q.** What about the relative viability (NCI-H2085; first compound 0.253 µM) of the same compound?
**A.** Its relative viability is 0.532.

**Q.** And the relative viability (NCI-H2085; first compound 0.8 µM)?
**A.** Its relative viability is 0.525.

**Q.** What about the relative viability (NCI-H2085; first compound 2.53 µM) of the same compound?
**A.** Its relative viability is 0.486.

**Q.** And the relative viability (NCI-H2085; first compound 8 µM)?
**A.** Its relative viability is 0.415.

**Q.** And the relative viability (NCI-H2170; first compound 0.08 µM)?
**A.** Its relative viability is 0.308.

**Q.** And the relative viability (NCI-H2170; first compound 0.253 µM)?
**A.** The relative viability was 0.382.

**Q.** What about the relative viability (NCI-H2170; first compound 0.8 µM) of the same compound?
**A.** The relative viability was 0.299.

**Q.** And the relative viability (NCI-H2170; first compound 2.53 µM)?
**A.** Its relative viability is 0.326.

**Q.** What about the relative viability (NCI-H2170; first compound 8 µM) of the same compound?
**A.** The relative viability was 0.236.

**Q.** And the relative viability (NCI-H2228; first compound 0.08 µM)?
**A.** The relative viability was 0.378.

**Q.** What about the relative viability (NCI-H2228; first compound 0.253 µM) of the same compound?
**A.** Its relative viability is 0.386.

**Q.** And the relative viability (NCI-H2228; first compound 0.8 µM)?
**A.** Its relative viability is 0.312.

**Q.** What about the relative viability (NCI-H2228; first compound 2.53 µM) of the same compound?
**A.** Its relative viability is 0.34.

**Q.** And the relative viability (NCI-H2228; first compound 8 µM)?
**A.** The relative viability was 0.29.

**Q.** What about the relative viability (NCI-H2347; first compound 0.08 µM) of the same compound?
**A.** Its relative viability is 0.611.

**Q.** And the relative viability (NCI-H2347; first compound 0.253 µM)?
**A.** Its relative viability is 0.599.

**Q.** What about the relative viability (NCI-H2347; first compound 0.8 µM) of the same compound?
**A.** Its relative viability is 0.601.

**Q.** What about the relative viability (NCI-H2347; first compound 2.53 µM) of the same compound?
**A.** Its relative viability is 0.605.

**Q.** And the relative viability (NCI-H2347; first compound 8 µM)?
**A.** Its relative viability is 0.605.

**Q.** And the relative viability (NCI-H23; first compound 0.08 µM)?
**A.** Its relative viability is 0.589.

**Q.** And the relative viability (NCI-H23; first compound 0.253 µM)?
**A.** The relative viability was 0.431.

**Q.** And the relative viability (NCI-H23; first compound 0.8 µM)?
**A.** Its relative viability is 0.448.

**Q.** What about the relative viability (NCI-H23; first compound 2.53 µM) of the same compound?
**A.** The relative viability was 0.429.

**Q.** And the relative viability (NCI-H23; first compound 8 µM)?
**A.** Its relative viability is 0.468.

**Q.** What about the relative viability (NCI-H322M; first compound 0.253 µM) of the same compound?
**A.** The relative viability was 0.509.

**Q.** And the relative viability (NCI-H322M; first compound 0.8 µM)?
**A.** The relative viability was 0.478.

**Q.** And the relative viability (NCI-H322M; first compound 2.53 µM)?
**A.** Its relative viability is 0.482.

**Q.** And the relative viability (NCI-H322M; first compound 8 µM)?
**A.** The relative viability was 0.382.

**Q.** And the relative viability (NCI-H520; first compound 0.08 µM)?
**A.** Its relative viability is 0.294.

**Q.** What about the relative viability (NCI-H520; first compound 0.253 µM) of the same compound?
**A.** The relative viability was 0.337.

**Q.** And the relative viability (NCI-H520; first compound 0.8 µM)?
**A.** The relative viability was 0.248.

**Q.** And the relative viability (NCI-H520; first compound 2.53 µM)?
**A.** The relative viability was 0.256.

**Q.** And the relative viability (NCI-H520; first compound 8 µM)?
**A.** The relative viability was 0.259.

**Q.** What about the relative viability (NCI-H647; first compound 0.08 µM) of the same compound?
**A.** The relative viability was 0.389.

**Q.** And the relative viability (NCI-H647; first compound 0.253 µM)?
**A.** The relative viability was 0.39.

**Q.** And the relative viability (NCI-H647; first compound 0.8 µM)?
**A.** The relative viability was 0.448.

**Q.** What about the relative viability (NCI-H647; first compound 2.53 µM) of the same compound?
**A.** Its relative viability is 0.383.

**Q.** And the relative viability (NCI-H647; first compound 8 µM)?
**A.** Its relative viability is 0.334.

**Q.** What about the relative viability (NCI-H661; first compound 0.08 µM) of the same compound?
**A.** Its relative viability is 0.447.

**Q.** And the relative viability (NCI-H661; first compound 0.253 µM)?
**A.** Its relative viability is 0.337.

**Q.** What about the relative viability (NCI-H661; first compound 0.8 µM) of the same compound?
**A.** Its relative viability is 0.454.

**Q.** And the relative viability (NCI-H661; first compound 2.53 µM)?
**A.** Its relative viability is 0.381.

**Q.** And the relative viability (NCI-H661; first compound 8 µM)?
**A.** Its relative viability is 0.408.

**Q.** What about the relative viability (NCI-H838; first compound 0.08 µM) of the same compound?
**A.** Its relative viability is 0.484.

**Q.** What about the relative viability (NCI-H838; first compound 0.253 µM) of the same compound?
**A.** Its relative viability is 0.454.

**Q.** What about the relative viability (NCI-H838; first compound 0.8 µM) of the same compound?
**A.** The relative viability was 0.444.

**Q.** And the relative viability (NCI-H838; first compound 2.53 µM)?
**A.** Its relative viability is 0.447.

**Q.** What about the relative viability (NCI-H838; first compound 8 µM) of the same compound?
**A.** Its relative viability is 0.427.
